Data on eleven compounds can be found in patent US9945843B2, “Methods for identifying compounds that inhibit G protein-coupled receptor (GPR84) agonist-stimulated chemotaxis” (GALAPAGOS NV, priority 2011, dated 2018).

Test [1] deals with T1, GPR84 (Homo sapiens, UniProt Q9NQS5). On the set-up: expressed in transfected cells. Conditions: Wang 2006; WO 2007/027661; cited from earlier work.
Test [2] deals with T1, GPR84. Nature of the test: Human neutrophil migration inhibition assay, Embelin as chemotactic agent. Type of test: cell-based. Conditions: for induction of neutrophil chemotaxis: GPR84 agonist used as chemotactic agent; for inhibition at 0.1 µM / inhibition at 1 µM / inhibition at 10 µM: 5 μM Embelin; for inhibition at 0.1 µM: compound 0.1 μM, read-out: Percentage of chemotaxis inhibition (PIN) @ 0.1 μM; for inhibition at 1 µM: compound 1 μM, read-out: Percentage of chemotaxis inhibition (PIN) @ 1 μM; for inhibition at 10 µM: compound 10 μM, read-out: Percentage of chemotaxis inhibition (PIN) @ 10 μM; for pIC50: human neutrophils, Embelin as chemotactic agent, read-out: Embelin-induced neutrophil chemotaxis IC50.

For test [3], the system named is IL8-stimulated chemotaxis of neutrophils. Nature of the test: Human neutrophil migration assay, IL8 as chemotactic agent. Conditions: for inhibition at 0.1 µM: read-out: Percentage of chemotaxis inhibition (PIN) @ 0.1 μM; for inhibition at 1 µM: read-out: Percentage of chemotaxis inhibition (PIN) @ 1 μM; for inhibition at 10 µM: read-out: Percentage of chemotaxis inhibition (PIN) @ 10 μM.
Experimental: In the neutrophil migration assay, neutrophils, freshly isolated from buffy coats from human volunteers, are treated with a compound for 30 minutes. Subsequently, the neutrophils are transferred to the upper wells of a Corning HTS transwell 96 permeable support system, of which the lower wells are filled with a Embelin solution.
A human buffy coat is diluted with an equal volume of ice cold DPBS. 20 mL of the diluted buffy coat was gently mixed with 4 mL of ACD buffer (140 mM citric acid, 200 mM sodium citrate and 220 mM dextrose). Then, 12 mL of the 6% dextran/0.9% NaCl solution (15 g dextran T2000 and 2.25 g NaCl dissolved in 250 mL H2O) is added to the mixture and the samples are inverted gently up to 20 times. The total volume is transferred to a new recipient and incubated at room temperature for 1 h for complete separation of the two phases to occur. The yellowish supernatant is then transferred to a clean centrifugation tube and centrifuged for 12 minutes at 1300 rpm and 4° C. After centrifugation, the supernatant is discarded and the remaining cell pellet is rapidly resuspended in 12 mL of ice-cold H2O for red blood cell lysis to occur. After 20 seconds, 4 mL of ice-cold 0.6 M KCl is added.
A cell suspension of 8.9×10^6 cells per milliliter is prepared. 20 μL of compound solution in chemotaxis buffer is added to 180 μL cell suspension. The mixture is incubated at 37° C. for 30 minutes with intermediate resuspension of the cells after 15 minutes. […] The receiver well of the transwell system is then filled with 200 μL chemotaxis buffer containing compound and chemotactic agent (Embelin). After incubation at 37° C. in 5% CO2 for 1 h, the upper plate of the transwell system was removed and the cell suspension in the receiver plate is transferred to a 96-well V-bottom plate. 50 μL of DPBS is added to the receiver plate to prevent remaining cells from drying out. The V-bottom plate is centrifuged for 6 minutes at 1500 rpm. The supernatant is removed and the cells are resuspended in 50 μL DPBS. The cells are then transferred back to the receiver plate of the transwell system. […] The plate is incubated for 10 minutes in the dark, while shaking. 170 μL of cell lysate is then transferred to a white 96-well plate and luminescence is measured. The detected luminescent signal is considered as linearly related to the number of cells having migrated from the upper well to the receiver well.
The same assay as described above is also performed using IL8 (25 ng/mL) as a chemotactic agent instead of Embelin.

Test [4] concerns the target T1, GPR84. Kind of test: Functional GPR84 activation assay: GTP-γS binding assay. Type of test: biochemical. Details: expressed in transfected cells. Conditions: membranes over expressing GPR84; 3,3′ di indolylmethane at EC80; read-out: GTPgS binding EC50. The protocol:
The following assay can be used for determination of GPR84 activation.
The assay is performed in a 96 well plate where the following reagents were added. […] In a last step, 30 μL of a mixture consisting of membranes-GTPγS-SpA beads is added [mixture consists of 20 μg/well membranes derived from stable cell line over expressing GPR84 (membranes are pre-incubated with 0.1 μM GDP for 15 min at 4° C.), 0.1 nM [^35S]GTPγS (Perkin Elmer, NEG030) and 0.5 mg/well PVT-WGA SpA beads (Perkin Elmer, RPNQ0001)]. All components are diluted in assay buffer containing 20 mM Hepes pH 7.4; 5 mM MgCl2; 250 mM NaCl; 0.05% BSA; 75 ug/mL saponin. Reactions are incubated for 90 min at room temperature followed by centrifugation at 2000 rpm for 15 min. Plates are read on a Topcount reader (Perkin Elmer) immediately after centrifugation (readout time, 1 min/well).
On the technique in general: GTPγS is a poorly hydrolysed GTP analogue; its binding reports G protein activation.

The test system of test [5] is tobacco smoke-induced pulmonary inflammation. Kind of test: Mouse tobacco smoke model. The following applies: C57BL/6J mice, 4 daily tobacco smoke exposures; data not shown. Type of test: in vivo. The text has this: To investigate test compounds, animals are divided into several groups: intact (no treatment, n=5), diseased (TS; vehicle alone, n=10), Roflumilast as reference (TS; Roflumilast n=10), and the test compound (TS; […]=10). […] At the end of 4 days, the numbers of macrophages, epithelial cells, neutrophils and lymphocytes are counted in the BAL. BAL was further analyzed for gene expression and protein level. Lung tissue is dissected for histological analysis, gene expression and protein level measurement.

In test [6] the test system is RAW264.7 murine macrophage-like cells. Conditions: RAW264.7 cells stimulated with LPS; cited from earlier work.
Test [7] has as its system chronic DSS-induced colitis. Kind of test: Mouse chronic DSS-induced inflammatory bowel disease model. The format is in vivo. The following applies: female BALB/c mice, p.o., data not shown. An excerpt: The compounds identified using the assay method described in Example 2, or others herein, can be further validated in vivo using known disease models. The mouse chronic DSS-induced inflammatory bowel disease model (IBD) is a well validated disease model for inflammatory bowel disease (Wirtz S. et al., 2007 Nature Protocols 2, 541-546; Sina C. et al., 2009 J. Immunol 183 7514-7522).
To induce a chronic colitis, female BALB/c mice are fed with 4% dextran sodium sulfate (DSS) dissolved in drinking water for 4 days, followed by 3 days of regular drinking water. This cycle is repeated three times. This protocol allows inducing a strong colitis while avoiding high mortality rates. Animals are divided into several groups: • intact (water; vehicle alone, n=10), • diseased (DSS; vehicle alone, n=10), • sulfazalazine used as reference (DSS; sulfazalazine, p.o., n=10) and • the tested compound (DSS; test cpd, p.o., n=10).
Clinical parameters are measured every other day. The disease activity index (DAI) is a composite measure combining of the individual scores for weight loss, stool consistency and rectal bleeding. Mice are sacrificed at day 20 of the experiment according to the protocol introduced by Sina et al. (2009). At sacrifice time, the complete colon is removed and rinsed with sterile PBS. […]

Molecules are shown by their SMILES. pEC50, pIC50: −log10 of the molar value.

By inhibition is commonly meant the change of the read-out against control, counted positive when it falls. The term pEC50 denotes −log10 of the EC50, conventionally taken in molar units. One may read the pIC50 as −log10 of the IC50, conventionally taken in molar units.

T1 sequence (Q9NQS5 whole entry): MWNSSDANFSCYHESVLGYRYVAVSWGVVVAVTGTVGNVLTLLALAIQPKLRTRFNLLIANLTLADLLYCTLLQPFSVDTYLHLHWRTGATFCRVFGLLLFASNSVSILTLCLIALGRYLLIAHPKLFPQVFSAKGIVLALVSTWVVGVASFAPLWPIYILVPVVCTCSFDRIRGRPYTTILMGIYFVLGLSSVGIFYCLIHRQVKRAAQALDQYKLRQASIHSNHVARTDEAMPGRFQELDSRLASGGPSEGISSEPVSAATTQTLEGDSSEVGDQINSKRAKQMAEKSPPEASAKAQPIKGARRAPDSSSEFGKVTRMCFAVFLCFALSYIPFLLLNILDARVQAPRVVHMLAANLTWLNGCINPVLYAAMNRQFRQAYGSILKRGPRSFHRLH

With `c1ccc2c(Cc3c[nH]c4ccccc34)c[nH]c2c1` [3,3′ di indolylmethane, reference compound], on GPR84 [1], the GPR84 agonist activity result is “some GPR84 agonist activity”. In addition, the “induction of neutrophil chemotaxis” value at GPR84 [2] was “induce neutrophil chemotaxis”.
With `O=c1nc(OCC2COCCO2)cc2n1CCc1cc(CCC(O)c3cccnc3)ccc1-2` (centres unmarked) [Cpd 7, 2-([1,4]Dioxan-2-ylmethoxy)-9-(3-hydroxy-3-pyridin-3-yl-propyl)-6,7-dihydro-pyrimido[6,1-a]isoquinolin-4-one], in test [3], the inhibition at 0.1 µM was 18%, the inhibition at 1 µM is 22% and the inhibition at 10 µM worked out at 13%. Moreover, the pEC50 on GPR84 [4] was 7.39. At GPR84 [2], the inhibition at 0.1 µM came out at 54%, the inhibition at 1 µM came to 90%, the inhibition at 10 µM stood at 81% and the pIC50 was 7.08.
As for `CCC(C)(C)CNc1ccc2c(c1)CCn1c-2cc(OC[C@@H]2COCCO2)nc1=O` [Cpd 8, 9-(2,2-Dimethyl-butylamino)-2-((S)-1-[1,4]dioxan-2-ylmethoxy)-6,7-dihydro-pyrimido[6,1-a]isoquinolin-4-one], in test [3], the inhibition at 0.1 µM is 9%, the inhibition at 1 µM was found to be 15% and the inhibition at 10 µM amounted to 55%. Moreover, the pEC50 at GPR84 [4] is 7.16. Besides, at GPR84 [2], the inhibition at 0.1 µM came to 52%, the inhibition at 1 µM turned out to be 95%, the inhibition at 10 µM is 103% and the pIC50 is 7.38.
With `O=c1nc(OC[C@@H]2COCCO2)cc2n1CCc1cc(OCC3CCCCO3)ccc1-2` (stereo partly drawn) [Cpd 9, 2-((S)-1-[1,4]Dioxan-2-ylmethoxy)-9-(tetrahydro-pyran-2-ylmethoxy)-6,7-dihydro-pyrimido[6,1-a]isoquinolin-4-one], in test [3], the inhibition at 0.1 µM came to 25%, the inhibition at 1 µM is 28% and the inhibition at 10 µM stood at 24%. Besides, the pEC50 at GPR84 [4] is 7.12. Also, on GPR84 [2], the inhibition at 0.1 µM amounted to 64%, the inhibition at 1 µM was found to be 94%, the inhibition at 10 µM was found to be 88% and the pIC50 was 7.39.
Consider `O=c1nc(OC[C@@H]2COCCO2)cc2n1CCc1cc(CCCNc3ccccc3)ccc1-2` [Cpd 10, 2-((S)-1-[1,4]Dioxan-2-ylmethoxy)-9-(3-phenylamino-propyl)-6,7-dihydro-pyrimido[6,1-a]isoquinolin-4-one], for which, in test [3], the inhibition at 0.1 µM was determined as 13%, the inhibition at 1 µM was determined as 7% and the inhibition at 10 µM turned out to be 24%. In addition, the pEC50 at GPR84 [4] was 8.10. On GPR84 [2], the inhibition at 0.1 µM is 71%, the inhibition at 1 µM was determined as 87%, the inhibition at 10 µM was 80% and the pIC50 is 8.03.
Regarding `CCCCCCCCCCCC1=C(O)C(=O)C=C(O)C1=O` [Embelin, 2,5-dihydroxy-3-undecyl-2,5-cyclohexadiene-1,4-dione, reference compound], the GPR84 agonist activity result on GPR84 [1] is given as “some GPR84 agonist activity”. Also, the “induction of neutrophil chemotaxis” value at GPR84 [2] is given as “induce neutrophil chemotaxis”.
In the case of `O=C(Nc1c(Cl)cncc1Cl)c1ccc(OC(F)F)c(OCC2CC2)c1` [Roflumilast], the “percentage inhibition of neutrophil counts in BAL” value in test [5] is reported as “around 60%”.
On to `CCCCCCCCCC(=O)O` [capric acid], for which, in test [6], the “secretion of interleukin-12 p40 subunit (IL-12 p40)” value (“secretion” for short) was “dose-dependently increased”.
On to `CCCCCCCCCCCC(=O)O` [lauric acid], for which the “secretion” value in test [6] is on record as “dose-dependently increased”.
Consider `O=C(O)c1cc(/N=N/c2ccc(S(=O)(=O)Nc3ccccn3)cc2)ccc1O` [sulfazalazine], for which the “effect against chronic inflammatory bowel disease” value in test [7] was “protective effect”.
In the case of `CCCCCCCCCCC(=O)O` [undecanoic acid], in test [6], the “secretion” value is listed as “dose-dependently increased”.
